The values below come from US9994533B2, “Method of preparing ATG's analogue, and the application of ATG and it's analogue” (Longhua Hospital Shanghai University of Traditional Chinese …, priority 2016, dated 2018).

The structures appear in SMILES notation.

In assay [1] the target is T1, Serine/threonine-protein phosphatase 2A catalytic subunit beta isoform (Homo sapiens, UniProt P62714).
T1 construct: endogenous in cells; host or cells: 293T
The assay is described as follows: DARTS mass spectrometry of 293T lysate after ATG. It counts as binding. The procedure: (§1) 293T cells were digested with M-PER mammalian protein extraction buffer (78501 ThermoFisher) and phosphatase inhibitor (50 mM NaF, 10 mM β-glycerophosphate, 5 mM sodium pyrophosphate, 2 mM Na3VO4); and the protein concentration is determined by Bradford method (500-0006 Bio-rad). ATG was either added or not in the cell lysate. If added, the concentration of ATG was 300 μM. The cells were incubated at room temperature for 1 h. The cells were then lysed by incubating for 20 minutes at room temperature with different concentrations of pronase at 1:1000 (10165921001, Roche). The two groups of lysates are subjected to mass spectrometry and then compared.
(§2) Furthermore, since the content of PP2A in cells is very low in the normal state, it is considered that the binding ratio of ATG and PP2A is high.

The target in assay [2] is T2, Tubulin beta-3 chain (Homo sapiens, UniProt Q13509).
T2 construct: endogenous in cells; host or cells: 293T
T2 sequence (Q13509 whole entry): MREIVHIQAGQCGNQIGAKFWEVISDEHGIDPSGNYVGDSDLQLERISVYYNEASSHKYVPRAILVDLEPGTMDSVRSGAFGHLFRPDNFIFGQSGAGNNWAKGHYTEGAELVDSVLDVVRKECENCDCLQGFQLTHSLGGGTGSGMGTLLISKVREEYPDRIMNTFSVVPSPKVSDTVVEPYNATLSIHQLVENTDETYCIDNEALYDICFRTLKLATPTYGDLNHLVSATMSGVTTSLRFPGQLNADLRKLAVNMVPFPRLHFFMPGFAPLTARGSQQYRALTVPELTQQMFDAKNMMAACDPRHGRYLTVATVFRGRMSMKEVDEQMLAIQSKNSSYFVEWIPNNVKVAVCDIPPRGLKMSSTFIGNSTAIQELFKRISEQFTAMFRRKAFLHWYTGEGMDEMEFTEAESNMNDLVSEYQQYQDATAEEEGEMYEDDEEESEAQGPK
T2 sequence (P68363 whole entry partner): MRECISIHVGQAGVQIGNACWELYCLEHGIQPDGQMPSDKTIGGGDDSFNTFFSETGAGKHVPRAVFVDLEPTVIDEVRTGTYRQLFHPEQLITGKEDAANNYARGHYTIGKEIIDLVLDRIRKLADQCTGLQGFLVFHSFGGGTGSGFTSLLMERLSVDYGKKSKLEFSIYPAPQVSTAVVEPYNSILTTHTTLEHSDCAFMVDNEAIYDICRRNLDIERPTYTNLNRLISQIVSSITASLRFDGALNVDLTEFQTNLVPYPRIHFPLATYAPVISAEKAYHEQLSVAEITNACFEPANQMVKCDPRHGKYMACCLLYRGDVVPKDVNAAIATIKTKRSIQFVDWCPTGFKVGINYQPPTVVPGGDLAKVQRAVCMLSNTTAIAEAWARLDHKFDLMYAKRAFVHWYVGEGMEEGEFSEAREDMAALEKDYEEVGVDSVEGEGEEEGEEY
The assay is described as follows: DARTS mass spectrometry of 293T lysate after ATG. Type of assay: binding. The note with it: ATG 300 μM, pronase 1:1000, TBB3_HUMAN. The procedure: as §1, §2

Assay [3] has as its target T3, Tubulin beta-6 chain (Homo sapiens, UniProt Q9BUF5).
T3 construct: endogenous in cells; host or cells: 293T
The assay is described as follows: DARTS mass spectrometry of 293T lysate after ATG. Type of assay: binding. Conditions: ATG 300 μM, pronase 1:1000, TBB6_HUMAN. The procedure: as §1, §2

Assay [4] has as its system NOX4 mRNA. As to the kind of experiment: NOX4 mRNA expression in human immortal podocytes under high glucose (Realtime PCR). It counts as cell-based. The note with it: FIG. 7. The source says:
The detection method of Western Blot and mRNA used in the present embodiment is a detection method commonly used by person skilled in the art, and the specific detection method is described in “Molecular Biology Laboratory Manual” (People's Military Medical Press, published in 2011 Jun. 1). 3.1 Western blot and Realtime PCR confirmed that ATG in human immortal podocytes can inhibit the overexpression of NOX4 caused by high glucose stimuli, see table 5 and FIG. 6. The expression of NOX4 in the total protein, membrane protein and mitochondrial protein of human immortal podocytes was detected in the experiment.

[5] abbreviates: ATG 300 μM, pronase 1:1000, PP2AB_HUMAN.

T1 sequence (P62714 whole entry, canonical isoform): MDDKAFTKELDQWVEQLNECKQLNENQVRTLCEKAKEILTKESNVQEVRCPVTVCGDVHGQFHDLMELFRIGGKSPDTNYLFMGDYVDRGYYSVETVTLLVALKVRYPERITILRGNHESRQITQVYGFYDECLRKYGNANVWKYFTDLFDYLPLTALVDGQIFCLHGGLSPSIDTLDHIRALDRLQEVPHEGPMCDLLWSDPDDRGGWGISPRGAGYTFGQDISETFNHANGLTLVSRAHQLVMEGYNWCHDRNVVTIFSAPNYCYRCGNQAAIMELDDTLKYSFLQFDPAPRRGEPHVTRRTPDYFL
T3 sequence (Q9BUF5 whole entry): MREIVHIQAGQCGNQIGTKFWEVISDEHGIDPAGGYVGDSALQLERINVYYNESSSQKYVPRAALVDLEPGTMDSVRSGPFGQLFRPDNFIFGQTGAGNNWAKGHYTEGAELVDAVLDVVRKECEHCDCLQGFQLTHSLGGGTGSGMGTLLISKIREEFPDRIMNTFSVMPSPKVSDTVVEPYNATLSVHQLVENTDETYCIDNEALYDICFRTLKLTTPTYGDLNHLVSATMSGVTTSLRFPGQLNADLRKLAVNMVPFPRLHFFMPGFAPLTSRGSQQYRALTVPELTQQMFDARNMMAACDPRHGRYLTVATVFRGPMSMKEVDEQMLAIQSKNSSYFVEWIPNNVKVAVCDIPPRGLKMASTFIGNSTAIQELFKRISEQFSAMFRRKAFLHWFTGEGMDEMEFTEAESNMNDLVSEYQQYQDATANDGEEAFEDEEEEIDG
T3 sequence (P68363 whole entry partner): as the sequence (P68363 whole entry partner) above

Regarding `COc1cc(C[C@H]2C(=O)OC[C@@H]2Cc2ccc(OC)c(OC)c2)ccc1O` [ATG, Arctigenin], the “Ratio (ATG/DMSO)” value in assay [1] (setting [5]) is 7.8; in assay [2], 25.6; in assay [3] it was 13.6. Also, the “Spectral Count (ATG)” value turned out to be 14 in assay [1] (setting [5]), 49 in assay [2] and 25 in assay [3]. Also, the “binding ratio of ATG and PP2A” value in assay [1] (conclusion from mass spectrometry) is given as “high”. In assay [4], the “overexpression of NOX4 mRNA induced by high glucose” value is on record as “able to inhibit the overexpression of NOX4 mRNA”.
